# Laboratory results as given in patent US20110268757A1, “USE OF PHENOL-SOLUBLE MODULINS FOR VACCINE DEVELOPMENT” (INSTITUT PASTEUR, priority 2008, published 2011).
# Assays:
# [1] = test system: bone marrow derived dendritic cells; experiment: Binding of CFSE labeled peptides to bone marrow derived dendritic cells (flow cytometry); assay type: cell-based, mouse; conditions: 20 μM peptide, fixed cells, 30 minutes at 4° C.
# Procedure: Dendritic cells were grown from bone marrow cells. After lysing the erythrocytes with ACK lysis buffer, the cells were washed and lymphocytes and granulocytes were removed by means of incubation with a mixture of antibodies against CD4 (GK1; ATCC, Manassas, Va.), CD8 (53.6.72; ATCC), Ly-6G/Gr1 (BD-Pharmingen; San Diego Calif.) and CD45R/B220 (BD-Pharmingen), followed by rabbit supplement. The remaining cells grew in 12 culture plates in complete medium with 10^6 cells/ml supplemented with 20 ng/ml of mGM-CSF and 20 ng/ml of mIL-4 (both from Peprotech; London, GB). Every 2 days the medium was substituted with fresh medium containing cytokines. On day 7, non-adherent dendritic cells were collected, and cultured in the presence or absence of 50 μM of modulin peptides or of 1 μg/ml of LPS (Sigma) and incubated for 48 hours at 37° C. and 5% CO2. After this period, the cells were isolated and incubated with anti IAb, CD54 and CD86 antibodies (Pharmingen). In parallel experiments, the dendritic cells were incubated with the indicated stimuli for 16 hours, after which the expression of the messenger RNA for the p40 molecules of IL-12 and of TNF-α was analyzed.
# [2] = test system: splenocytes from C57BL/6 TLR2KO mice; experiment: Binding of CFSE labeled peptides to fixed splenocytes from TLR2 KO mice (flow cytometry); assay type: cell-based, mouse; conditions: 20 μM peptide, 30 minutes at 4° C.
# Procedure: Mouse splenocytes were purified from C57BL/6 TLR2KO mice after homogenizing the spleen. […] 5×10^5 fixed splenocytes were incubated in the presence of 20 μM CFSE γMod-SIINFEKL, CFSE αMod-SIINFEKL or CFSE-OVA (235-264) control peptide to show the binding specificity.
# [3] = test system: CD4, CD8, CD11c, CD19, F480 or GR1(CD117) positive splenocytes; conditions: total splenocytes, double staining, 20 μM
# Procedure: (§2) Binding assays were carried out using either splenocytes (FIG. 1, panels A B, D, E and G) or bone marrow derived dendritic cells (FIG. 1, panels C and F). The cells were fixed by means of an incubation with a 0.4% glutaraldehyde solution for 15 minutes at 4° C. 5×10^5 fixed cells were incubated in the presence of 20 μM CFSE αMod-[sequence] (FIG. 1, panels A, B and C), or CFSE γMod-[sequence] (FIG. 1, panels D, E, F and G). In some assays, and to study the specificity of CFSE labeled peptide binding, these incubations were carried out in the presence or absence of the unlabeled peptides αMod-[sequence], γMod-[sequence] or [sequence] (100 μM) (panels B and E). Also, we carried out binding assays using the CFSE labeled peptide CFSE-OVA (235-264) as a negative control (FIG. 1, panels A, C, D and F). After 30 minutes of incubation at 4° C., two washings with PBS were carried out and the performed labeling was analyzed by flow cytometry. In some experiments (FIG. 1G), double staining was carried out using anti-CD4, CD8, CD11c, CD19, F480 or GR1(CD117) antibodies labeled with phycoerythrin (Pharmingen) together with the CFSE-γMod-[sequence] peptide. In these cases, the labeling with the specific antibodies was carried out before fixing the cells with glutaraldehyde.
# mouse splenocytes = experiment: Binding of CFSE labeled peptides to glutaraldehyde-fixed splenocytes (flow cytometry); assay type: cell-based; conditions: unlabeled competitor 100 μM
# Procedure: as §2
# [4] = test system: T cells from OT-1 transgenic mice; experiment: Antigen presentation assay: proliferation of OT-1 T cells (tritiated thymidine); assay type: cell-based, mouse; conditions: dendritic cells incubated with 10 μM peptide
# Procedure: Dendritic cells derived from bone marrow were cultured in the presence or absence of 10 μM of the indicated peptides (FIG. 3). Forty hours later, the cells were washed and distributed in 96-well plates at different concentrations and incubated in the presence of 10^5 T cells/well obtained from OT-1 transgenic mice (which express a specific T receptor for the SIINFEKL peptide of ovalbumin. Seventy-two hours later, tritiated thymidine was added to the cultures and six hours later the cells were harvested and the incorporated thymidine was analyzed in a scintillation counter (Topcount Packard).
# [5] = test system: splenocytes pulsed with the SIINFEKL peptide; experiment: In vivo killing assay against SIINFEKL-pulsed splenocytes after immunization; design: species or system C57BL/6 mice; conditions: for specific cytotoxic activity against SIINFEKL (in vivo killing): 5 nmoles peptide plus 50 μg poly I:C, seven days after immunization; for effect of combination with TLR3 ligand on activation of the cytotoxic response (in vivo killing): 5 nmoles peptide with 50 μg TLR3 ligand (poly I:C); for effect of combination with TLR3 ligand on activation of the cytotoxic response (in vivo killing) / effect of combination with TLR9 ligand on activation of the cytotoxic response (in vivo killing) / cytotoxic T responses against SIINFEKL target cells (in vivo killing): seven days; for effect of combination with TLR9 ligand on activation of the cytotoxic response (in vivo killing): 5 nmoles peptide with 50 μg TLR9 ligand (CpG); for cytotoxic T responses against SIINFEKL target cells (in vivo killing): Example 4, C57BL/6 wild type mice, 5 nmoles peptide with 50 μg poly I:C
# Procedure: C57BL6 mice were intravenously immunized intravenously with 5 nmoles of the indicated peptides in combination with 50 μg of the TLR3 ligand poly I:C. In some cases, the peptides were immunized in the presence of TLR2 (peptidoglycan), TLR4 (LPS or the EDA protein) or TLR9 (CpG) ligand. […] On the following day, the mice were sacrificed and the splenocytes were analyzed by flow cytometry to quantify the number of cells with high CFSE labeling with respect to the cells with low CFSE labeling. Thus, the percentage of cell lysis of the cells incubated with the cytotoxic SIINFEKL peptide can be calculated in an experiment called in vivo killing.
# C57BL6 wild type mice and knockout mice were immunized for TLR2 with the aim of studying the dependence on TLR2 in the immunostimulating capacity of modulin-derived peptides. Thus, different mice were injected with 5 nmoles of the indicated peptides or with PBS in combination with 50 μg of the TLR3 ligand poly I:C. […] On the following day, the mice were sacrificed and the splenocytes were analyzed by flow cytometry to quantify the number of cells with high CFSE labeling with respect to the cells with low CFSE labeling in the same manner as in Example 3.
# [6] = test system: IFNγ-producing cells in response to the SIINFEKL peptide; experiment: ELISPOT of IFNγ-producing cells specific for SIINFEKL after immunization; assay type: in vivo, C57BL/6 mice; conditions: for IFNγ-producing cells in response to SIINFEKL (ELISPOT): 5 nmoles peptide plus 50 μg poly I:C, seven days after immunization; for IFN-γ-producing cells specific for SIINFEKL (ELISPOT): Example 4, C57BL/6 wild type mice, 5 nmoles peptide with 50 μg poly I:C, seven days
# Procedure: C57BL6 mice were intravenously immunized intravenously with 5 nmoles of the indicated peptides in combination with 50 μg of the TLR3 ligand poly I:C. In some cases, the peptides were immunized in the presence of TLR2 (peptidoglycan), TLR4 (LPS or the EDA protein) or TLR9 (CpG) ligand. Seven days after the immunization, the mice were intravenously injected with a mixture of 5×10^6 splenocytes, half of which had been previously labeled with a dose of 0.25 μM C and the other half with 2.5 uM CFSE and the SIINFEKL peptide (10 μg/ml). On the following day, the mice were sacrificed and the splenocytes were analyzed by flow cytometry to quantify the number of cells with high CFSE labeling with respect to the cells with low CFSE labeling. Thus, the percentage of cell lysis of the cells incubated with the cytotoxic SIINFEKL peptide can be calculated in an experiment called in vivo killing.
# For the analysis of IFNγ-producing cells specific for SIINFEKL and induced in vivo by the immunizations, ELISPOT experiments were carried out using a BD-pharmingen kit (San Diego, Calif.) and according to the instructions of the manufacturer. Briefly, the plates (Multiscreen HTS, Millipore, Bedford, Mass.) incubated overnight with the anti-IFNγ antibody were blocked for 2 hours with HL-1 medium (Biowhittaker, Verviers, Belgium) containing 10% horse serum. Thus, 5×10^5 splenocytes were incubated in triplicate in the absence or in the presence of the antigens at 37° C. and 5% CO2. On the following day, the plates were washed with PBS and incubated with biotinylated anti-IFNγ antibody (2 mg/ml). After two hours, the plates were washed and incubated with a 1/100 dilution of streptavidin-peroxidase. One hour later, the wells were washed and developed using the AEC substrate set (BD-Pharmingen). The colorimetric reaction was stopped with distilled water and the number of spots was quantified using an ELISPOT automatic reader (CTL, Aalen, Germany).
# (§1) For the analysis of IFNγ-producing cells in the presence of SIINFEKL and induced in vivo by the immunizations, ELISPOT experiments were carried out using a BD-pharmingen kit (San Diego, Calif.) and according to the instructions of the manufacturer, in the same manner as in Example 3.
# EG7OVA tumor cells [7] = experiment: Protection against the challenge with EG7OVA tumor cells after immunization; assay type: in vivo, C57BL/6 mice; conditions: 5 nmoles peptide with poly I:C
# Procedure: Protection against the challenge with EG7 tumor cells expressing the OVA protein C57BL6 mice were subcutaneously immunized with 5 nmol of the indicated peptides in combination with poly I:C. […] In some experiments, mice were first challenged s.c with 5×10^5 cells and when tumors reached 5 mm in diameter they were treated with the indicated peptide. The tumor growth was controlled with a gage. Mice were sacrificed when the tumor reached a volume greater than 4 cm^3. Kaplan-Meier plot of mice survival for each immunogen is depicted.
# EG7OVA tumor cells [8] = experiment: Treatment of mice bearing established EG7OVA tumors; assay type: in vivo, C57BL/6 mice; conditions: EG7OVA tumors of 5 mm diameter at treatment, peptide plus poly I:C, p<0.05
# Procedure: Protection against the challenge with EG7 tumor cells expressing the OVA protein C57BL6 mice were subcutaneously immunized with 5 nmol of the indicated peptides in combination with poly I:C. Seven days after the immunization, the mice were subcutaneously injected with 5×10^5 or with 5×10^7 EG7OVA cells. In some experiments, mice were first challenged s.c with 5×10^5 cells and when tumors reached 5 mm in diameter they were treated with the indicated peptide. The tumor growth was controlled with a gage. Mice were sacrificed when the tumor reached a volume greater than 4 cm^3. Kaplan-Meier plot of mice survival for each immunogen is depicted.
# [9] = test system: splenocytes pulsed with the SIINFEKL peptide; experiment: In vivo killing assay against SIINFEKL-pulsed splenocytes in TLR2 KO mice; conditions: mice lacking TLR2, 5 nmoles peptide with 50 μg poly I:C, seven days; level similar to wild type
# Procedure: C57BL6 wild type mice and knockout mice were immunized for TLR2 with the aim of studying the dependence on TLR2 in the immunostimulating capacity of modulin-derived peptides. Thus, different mice were injected with 5 nmoles of the indicated peptides or with PBS in combination with 50 μg of the TLR3 ligand poly I:C. Seven days after the immunization, the mice were intravenously injected with a mixture of 5×10^6 splenocytes, half of which had been previously labeled with a dose of 0.25 μM C and the other half with 2.5 μM CFSE and the SIINFEKL peptide (10 μg/ml). On the following day, the mice were sacrificed and the splenocytes were analyzed by flow cytometry to quantify the number of cells with high CFSE labeling with respect to the cells with low CFSE labeling in the same manner as in Example 3.
# [10] = test system: IFNγ-producing cells in response to the SIINFEKL peptide; experiment: ELISPOT of IFNγ-producing cells specific for SIINFEKL in TLR2 KO mice; assay type: in vivo; conditions: mice lacking TLR2, 5 nmoles peptide with 50 μg poly I:C, seven days; level similar to wild type
# Procedure: as §1
# [11] = test system: IFN-γ producing cells in the presence of the peptide E7(49-57); experiment: ELISPOT of IFN-γ producing cells against peptide E7(49-57) after immunization; assay type: in vivo, C57BL6 mice; conditions: 5 nmoles peptide with 50 μg poly I:C, seven days after immunization
# Procedure: C57BL6 mice were intravenously immunized with 5 nmoles of the indicated peptides in combination with 50 μg of the TLR3 ligand poly I:C. For the analysis of the IFN-γ producing cells in the presence of the peptide E7(49-57) and induced in vivo by the immunizations, the animals were sacrificed 7 days after the immunizations and ELISPOT experiments were conducted using a BD-pharmingen kit (San Diego, Calif.) as indicated above and using peptide E7(49-57) as an antigen.
# [12] = test system: TC-1 tumor cells (expressing the E7 protein of the HPV-16 virus); experiment: Treatment of mice carrying TC1 subcutaneous tumors; assay type: in vivo, C57B/6 mice; conditions: TC1 tumors of 8 mm diameter, i.v. peptide plus 50 μg/ml poly I:C, second immunization seven days later
# Procedure: The C57B/6 mice were subcutaneously injected with 5×10^5 TC-1 tumor cells (expressing the E7 protein of the HPV-16 virus). After 25 days, when the tumor reaches a diameter of 8 mm, the mice are intravenously treated with PBS (B), with peptide E7(49-57) plus 50 μg/ml poly I:C(C), or with peptide αMod-E7(49-57) plus 50 μg/ml poly I:C (D). Seven days later, the mice received a second immunization of the same immunogens. The tumor size, presented as the average of two perpendicular diameters, was measured at regular intervals using a gauge. The number of tumor-free mice relative to the total number of animals per group is included for each treatment.
Substance,proliferation of OT-1 T lymphocytes stimulated by peptide-incubated dendritic cells [4],specific cytotoxic activity against SIINFEKL (in vivo killing) [5],effect of combination with TLR3 ligand on activation of the cytotoxic response (in vivo killing) [5],effect of combination with TLR9 ligand on activation of the cytotoxic response (in vivo killing) [5],cytotoxic T responses against SIINFEKL target cells (in vivo killing) [5],IFNγ-producing cells in response to SIINFEKL (ELISPOT) [6],IFN-γ-producing cells specific for SIINFEKL (ELISPOT) [6],cytotoxic T responses against SIINFEKL target cells (in vivo killing) [9],IFN-γ-producing cells specific for SIINFEKL (ELISPOT) [10],other results
CFSE-MAADIISTIGDLVKWIIDTVNKFKKSIINFEKL [CFSE-γMod-SIINFEKL],,,,,,,,,,binding of CFSE labeled peptide to bone marrow derived dendritic cells [1]: able to stain bone marrow derived dendritic cells; binding of CFSE labeled peptide to the surface of TLR2 KO splenocytes [2]: still retained the capacity to bind; percentage of CD4+ cells stained with the CFSE peptide [3]: approximately 24.4%; percentage of CD8+ cells stained with the CFSE peptide [3]: ~17.8%; percentage of CD11c cells stained with the CFSE peptide [3]: ~62.1%; percentage of CD19 cells stained with the CFSE peptide [3]: ~52.8%; percentage of F418 cells stained with the CFSE peptide [3]: ~66.2%; percentage of GR1+ cells stained with the CFSE peptide [3]: ~27.3%
MAADIISTIGDLVKWIIDTVNKFKKSIINFEKL [γMod-SIINFEKL],significantly better than OVA (235-264) peptide,strong cytotoxic responses,synergistic effect,synergistic effect,capable of inducing cytotoxic T responses,production of IFNγ,is induced,also observed,also observed,reduction of the bright fluorescence of CFSE γMod-SIINFEKL on splenocytes by unlabeled peptide (mouse splenocytes; 20 μM CFSE γMod-SIINFEKL): reduced the bright fluorescence; protection from tumor growth after EG7OVA challenge (EG7OVA tumor cells [7]; 7×10^5 EG7OVA cells s.c. seven days after immunization (FIG. 5B)): protected the mice from tumor growth; mice rejecting the established tumor (EG7OVA tumor cells [8]): about 38%
MADVIAKIVEIVKGLIDQFTQKRAHYNIVTF [αMod-E7(49-57)],,,,,,,,,,"response against the cytotoxic peptide E7 (49-57) (ELISPOT, IFN-γ producing cells) [11]: induces a specific cytotoxic response; number of tumor-free (cured) mice relative to the total number of mice [12]: 11 of 11"
MADVIAKIVEIVKGLIDQFTQKSIINFEKL [αMod-SIINFEKL],significantly better than OVA (235-264) peptide,strong cytotoxic responses,synergistic effect,synergistic effect,capable of inducing cytotoxic T responses,production of IFNγ,is induced,also observed,also observed,inhibition of the CFSE αMod-SIINFEKL signal on splenocytes by unlabeled peptide (mouse splenocytes; 20 μM CFSE αMod-SIINFEKL): significantly inhibited; protection from tumor growth after EG7OVA challenge (EG7OVA tumor cells [7]; 5×10^5 EG7OVA cells s.c. seven days after immunization (FIG. 5A)): protected the mice from tumor growth
